Key:
Akt in HepG2 cells = experiment: Western blot of Akt phosphorylation; type: cell-based, human; conditions: HepG2, no basal activation of Akt
Method: FIGS. 4A-4E are images showing Uttroside B inhibits MAPK and mTOR signaling, some of the crucial survival signals in liver cancer. […] HepG2 cells were treated with Uttroside B for different time intervals (0-240 min) and the whole cell lysate was resolved on a 10% gel and immunoblotted against phospho-ERK1/2 and phospho-Akt antibodies. Taxol was used as a positive control. […] HepG2 cells were treated with Uttroside B at different time intervals and the whole cell lysate was resolved on an 8% gel and immunoblotted against phospho-mTOR (2448) and phospho-mTOR (2481) antibodies.
Western blot analysis. Approximately 0.5×10^6 cells were grown on 60 mm culture plates and exposed to drugs as indicated for the desired time. The cells were then scraped out, washed in ice cold 1× PBS and pelleted down at 13000 rpm for 2 min. […]

HepG2 xenograft tumors = experiment: HepG2-xenograft model in NOD-SCID mice; type: in vivo
Method: Our next attempt was to validate the anticancer potential of Uttroside B against hepatic cancer, using an in vivo HepG2-xenograft model in NOD-SCID mice. The HepG2 cells suspended in matrigel were subcutaneously injected in the flank region of the mice. The study has been schematically represented in FIG. 6A. Uttroside B, dissolved in PBS, was administered after 15 days of tumor cell implantation when the tumor attained a size of 50-100 mm^3 approximately. Uttroside B (10 mg/kg bw) was injected intraperitoneally, thrice weekly for four weeks. […] The size of the tumor was measured using Vernier calipers every week and the corresponding tumor volume was calculated. […] However, upon sacrifice, very small tumors were observed beneath the skin of animals treated with Uttroside B too, though the size was drastically less compared to that of control animals [FIG. 6B-6C]. […] Although this study was in a mouse the skilled artisan knows that that dose may be converted to human equivalent dosage by simple math. For example the 10 mg/kg body weight for a mouse would convert to a 0.8 mg/kg body weight for a human and result in a range from 0.05 to 1.2 mg/kg body weight.
In vivoHepG2-Xenograft model: All animal studies were performed in accordance with the protocols approved by Institute Animal Ethical Committee IAEC No: 151(b)/RUBY/2012. An ectopic xenograft model in NOD-SCID (NOD.CB17-Prkdcscid/J) mice was used for evaluating the anti-cancer properties of Uttroside B. The animals required for this study were obtained from Animal Research Facility of Rajiv Gandhi Centre for Biotechnology and were fed with standard food pellets and autoclaved water ad libitum. Animal handling, tumor induction, drug treatment and tissue collection were performed in sterile conditions.
Evaluation of the anticancer activity of Uttroside B, isolated from S. nigrum in human liver cancer (HepG2)-xenograft model: xenografts models were established in NOD-SCID mice as described in literature.^10 Male NOD-SCID (NOD.CB17-Prkdc^scid/J) mice of age 6-8 weeks were used for the study. Tumors were induced by subcutaneous injection of HepG2 cells (7×10^6 cells in 100 μL matrigel) in the lower right or left flank of mice and were allowed to grow for a period of two weeks to attain a size of approximately 50-100 mm^3 as measured by Vernier calipers. The mice were then randomly grouped into control and treatment group of 9 animals each. The treatment groups were injected intraperitoneally with Uttroside B (10 mg/kg doses thrice weekly) for one month. Tumor volume was measured every seven days to evaluate tumor growth and drug response. The animals were sacrificed at the end of the study and tumor samples were collected for histopathological and immunohistochemical analysis.
Histopathology: The tissue cryo-sections were washed with PBS (5 min, 2 times) and distilled water for 5 min. Then the sections were stained with hematoxylin for 2 min. Excess stain was washed off and the slides were dipped in differentiation solution for 1-2 s. They were then kept in tap water for 10 min and 70% Isopropyl alcohol for 5 min respectively and were counter stained with eosin solution for 1 min. The sections were then transferred to 100% Isopropyl alcohol and kept for 2 min, cleared in xylene for 1 h and were mounted using DPX. Stained sections were observed using a light microscope and were photographed. The pathology of liver and tumor tissue sections were examined and verified by Dr. Sankar Sundaram, Professor of Pathology, Medical College, Thiruvananthapuram.
Immunohistochemistry of xenograft tissue sections: Immunohistochemical analysis of various proteins in the xenograft tumor tissue sections was performed using the detection kit, as per manufacturer's protocol Super Sensitive™ Polymer-HRP IHC Detection System (Biogenex, Calif., USA). Paraformaldehyde-fixed OCT-embedded tissue sections were kept in PBS for 15 min. […]

[1] = 10 mg/kg bw i.p. thrice weekly, four weeks

## C[C@H](CC[C@@]1(O)O[C@H]2C[C@H]3[C@@H]4CC[C@H]5C[C@@H](O[C@@H]6O[C@H](CO)[C@H](O[C@@H]7O[C@H](CO)[C@@H](O)[C@H](O[C@@H]8OC[C@@H](O)[C@H](O)[C@H]8O)[C@H]7O[C@@H]7O[C@H](CO)[C@@H](O)[C@H](O)[C@H]7O)[C@H](O)[C@H]6O)CC[C@]5(C)[C@H]4CC[C@]3(C)[C@H]2[C@@H]1C)CO[C@@H]1O[C@H](CO)[C@@H](O)[C@H](O)[C@H]1O [Uttroside B]
Akt in HepG2 cells
  activation of Akt: no significant role in activating Akt pathway
HepG2 xenograft tumors; [1]
  cleaved PARP expression in tumor sections (IHC): Significant upregulation in the expression of cleaved PARP
  externally visible tumor at end of treatment: no tumor was visible externally
  histopathology (H&E) of tumor mass: massive destruction of cells
  tumor volume vs control: significantly low
HepG2 xenograft tumors; HepG2 xenograft tumor sections
  tissue level expression of LC3 (IHC): very high
  tissue level expression of beclin-1 (IHC): very high
HepG2 xenograft tumors; immunohistochemical staining, NOD-SCID mice
  phosphorylation status of p70S6K and 4E-BP-1 in xenograft tumor tissue: significant down-regulation in the phosphorylation status

— patent US11607422B2, “Uttroside B and derivatives thereof as therapeutics for hepatocellular carcinoma” (Rajiv Gandhi Centre for Biotechnology, an Autonomous …, priority 2016, dated 2023)
